Data set [1] deals with E. coli (KpC1812446). Particulars: agent alone, BM2 minimal medium.
Data set [2] deals with K. pneumoniae (ATCC13883).
Data set [3] deals with E. coli (KpC+1812446) planktonic cells. Particulars: Table 8, planktonic cells.
Data set [4] has as its system E. coli (KpC+1812446) biofilm. Particulars: Table 7, biofilm.
Data set [5] has as its system E. coli (KpC1812446). The data set can be described thus: microbe, parasite or virus in culture. Particulars: Escherichia coli.
In data set [6] the test system is K. pneumoniae (ATCC13883). The data set can be described thus: microbe, parasite or virus in culture. Particulars: Klebsiella pneumoniae.
The next data set has as its system E. coli (ATCC 25922). Particulars: for MIC in Cu(II) supplemented medium: ATCC 25922; for MIC: ATCC 25922, 12 h.
The next data set deals with S. aureus (ATCC 25923). Particulars: for MIC in Cu(II) supplemented medium: ATCC 25923; for MIC: ATCC 25923, 12 h.
For another data set, the system named is E. coli (KpC+ 1812446). Particulars: MH broth, 12 h, 37° C.
The next data set has as its system E. coli (KpC+ 2101123). Particulars: for MIC in Cu(II) supplemented medium: Cu(II) supplemented medium (0.25 μM); for MIC: MH broth, 12 h, 37° C.
The subject of data set [7] is K. pneumoniae (KpC+ 1825971). Particulars: for MIC in Cu(II) supplemented medium: Cu(II) supplemented medium (0.25 μM); for MIC: MH broth, 12 h, 37° C.
Data set [8] has as its system K. pneumoniae (ATCC 13883). Particulars: ATCC 13883, 12 h.
For data set [9], the system named is P. aeruginosa (ATCC 27853). Particulars: ATCC 27853, 12 h.
The subject of a further data set is MRSA (3730529). Particulars: 3730529, 12 h.
Data set [10] relates to E. coli (KpC1812446). Particulars: Table 3, agent alone.
Data set [11] deals with K. pneumoniae (ATCC13883). Particulars: ATCC13883.
In another data set the test system is E. coli KpC+1812446. In kind it is in vivo, mice. On the procedure:
Male Balb/C (18-20 g) mice from the Biotério Central do Campus da USP in Ribeirão Preto, São Paulo, were kept in groups of 5 per cage at 22° C. with normal cycles of light and free access to food and water. The care and use of the animals were approved by the Ethics Committee of Universidade Católica Dom Bosco number 019/2016. We assessed the ability of the peptides to protect the mice from lethal systemic infections induced with E. coli KpC+1812446. The mice (n=40) were randomly placed into eight groups of five mice each, and each mouse was injected intraperitoneally with 200 μL of saline solution containing 2×10^7 CFU of E. coli KpC+1812446. Intraperitoneal treatment with 5 or 10 mg·Kg^−1 of each peptide was initiated after one hour of infection and repeated at 24 h intervals for seven days^61. Gentamicin at 10 mg·Kg^−1 of body weight and normal saline were used as positive and negative controls, respectively.

[12] abbreviates: agent alone, BM2 minimal medium.
Where [13] appears, read: antibiotic in combination with CM15.
Setting [14] is: antibiotic in combination with GGH-CM15.
Setting [15] is: antibiotic in combination with VIH-CM15.
Setting [16] is: Cu(II) in MH broth, determined in our laboratory.

In brackets after ≈: the same amount, converted by molar mass. Where two headings read alike, the source gives them in different places. Ends that are not written are not given here.

As for `CC1(C)S[C@@H]2[C@H](NC(=O)[C@H](N)c3ccccc3)C(=O)N2[C@H]1C(=O)O` [AmP, ampicillin], the MBIC (in the data set with E. coli (KpC1812446) [1]; in [2] (setting [12])) was >183 µM each time. The “MBIC Antibiotic alone” value in data set [3] and in data set [4] was 366 µM each time. Also, the “MBIC Antibiotic + Peptide” value in data set [3] (setting [13]), in data set [3] (setting [14]), in data set [3] (setting [15]), in data set [4] (setting [13]), in [4] (setting [14]) and in data set [4] (setting [15]) was 366 µM throughout. The MIC (against E. coli (KpC1812446) [5]; in data set [6]) was > 183 µM each time.

Turning to `O=C(N[C@H](CO)[C@H](O)c1ccc([N+](=O)[O-])cc1)C(Cl)Cl` [CHL, chloramphenicol], the MBIC (with E. coli (KpC1812446) [1]; in data set [2] (setting [12])) was >198 µM in each case. Further, the “MBIC Antibiotic alone” value in data set [3] and in data set [4] was 396 µM each time. Besides, the “MBIC Antibiotic + Peptide” value in [3] (setting [13]) was found to be 0.8 µM; in [3] (setting [14]) it was 3 µM; in data set [3] (setting [15]), 0.8 µM; in [4] (setting [13]), 396 µM; in [4] (setting [14]), 396 µM; in data set [4] (setting [15]) it was 396 µM. In addition, the MIC (against E. coli (KpC1812446) [5]; in [6]) was > 198 µM each time.

Turning to `O.O.O.O.O.O=S(=O)([O-])[O-].[Cu+2]` [Cu(II) ions, CuSO4·5H2O], the toxic level in the data set on E. coli (ATCC 25922) (setting [16]) and with S. aureus (ATCC 25923) (setting [16]) was 7.8 mM throughout.

For the compound `C[C@@H](O)[C@H]1C(=O)N2C(C(=O)O)=C(S[C@@H]3CN[C@H](C(=O)N(C)C)C3)[C@H](C)[C@H]12` [MER, meropenem], the values for the MBIC (with E. coli (KpC1812446) [1]; in data set [2] (setting [12])) were 0.6 µM and >167 µM, respectively. For the same compound, the “MBIC Antibiotic alone” value in [3] and in [4] was 0.6 µM throughout. Also, the “MBIC Antibiotic + Peptide” value in data set [3] (setting [13]) was 0.6 µM; in data set [3] (setting [14]) it was 0.16 µM; in [3] (setting [15]), 0.3 µM; in [4] (setting [13]), 0.16 µM; in [4] (setting [14]), 0.013 µM; in data set [4] (setting [15]) it was 0.04 µM. Further, the figures for the MIC (in the data set with E. coli (KpC1812446) [5]; in [6]) were 0.6 µM (≈ 0.23 µg/mL) and > 167 µM, respectively.

Turning to `[H]/N=C(/N)N[C@H]1[C@H](O)[C@@H](O)[C@H](O[C@@H]2O[C@@H](C)[C@](O)(C=O)[C@H]2O[C@@H]2O[C@@H](CO)[C@H](O)[C@@H](O)[C@@H]2NC)[C@@H](N/C(N)=N\[H])[C@@H]1O` [STR, streptomycin], the MBIC in the data set with E. coli (KpC1812446) [1] was 14 µM; in data set [2] (setting [12]), >110 µM. In addition, the “MBIC Antibiotic alone” value in data set [3] and in [4] was 14 µM throughout. Further, the “MBIC Antibiotic + Peptide” value was determined as 4 µM in data set [3] (setting [13]); 14 µM in [3] (setting [14]); 0.4 µM in data set [3] (setting [15]); 4 µM in data set [4] (setting [13]); 4 µM in [4] (setting [14]); 7 µM in [4] (setting [15]). The MIC against E. coli (KpC1812446) [5] is 14 µM (≈ 8.14 µg/mL); in data set [6] it was > 110 µM.

For the compound `COc1cc(Cc2cnc(N)nc2N)cc(OC)c1OC` [TRI, trimethoprim], the MBIC (in the data set with E. coli (KpC1812446) [1]; in data set [2] (setting [12])) was >220 µM throughout. Moreover, the “MBIC Antibiotic alone” value in [3] and in data set [4] was 440 µM in each case. In addition, the “MBIC Antibiotic + Peptide” value in [3] (setting [13]) is 55 µM; in [3] (setting [14]) it was 110 µM; in data set [3] (setting [15]) it was 220 µM; in [4] (setting [13]), 440 µM; in [4] (setting [14]), 220 µM; in data set [4] (setting [15]), 220 µM. Further, the MIC (against E. coli (KpC1812446) [5]; in data set [6]) was > 220 µM each time.

As to “GGHGLFDVIKKVASVIGGL-NH2 [GGH-Citropin1.1]”, the “MIC in Cu(II) supplemented medium” value against E. coli (ATCC 25922) is 34 µM; in the data set with E. coli (KpC+ 2101123), 9 µM; in data set [7], >34 µM; with S. aureus (ATCC 25923) it was 9 µM. Also, the MIC in the data set with E. coli (ATCC 25922) was 34 µM; in the data set with E. coli (KpC+ 1812446), 34 µM; against E. coli (KpC+ 2101123), 9 µM; in data set [7], >34 µM; in data set [8], 34 µM; in [9] it was >34 µM. Also, the MIC with MRSA (3730529) is 17 µM; with S. aureus (ATCC 25923) it was 9 µM; in the data set on E. coli (KpC1812446) [10], >34 µM; in [11] it was >34 µM. Besides, the MBIC (in the data set with E. coli (KpC1812446) [1]; in [2] (ATCC13883)) was >34 µM throughout.

Regarding “GLFDVIKKVASVIGGL-NH2 [Citropin1.1, GLFDVIKKVASVIGGL-NH2, reference compound]”, the “MIC in Cu(II) supplemented medium” value in the data set with E. coli (ATCC 25922) was 10 µM; against E. coli (KpC+ 2101123) it was 5 µM; in data set [7], 20 µM; against S. aureus (ATCC 25923), 3 µM. The MIC with E. coli (ATCC 25922) is 10 µM; in the data set with E. coli (KpC+ 1812446) it was 10 µM; in the data set with E. coli (KpC+ 2101123), 5 µM; in data set [7], 20 µM; in data set [8], 20 µM; in [9] it was >40 µM. Moreover, the MIC in the data set with MRSA (3730529) was 10 µM; in the data set with S. aureus (ATCC 25923), 3 µM; against E. coli (KpC1812446) [10], >40 µM; in data set [11], >40 µM. For the same compound, the MBIC (with E. coli (KpC1812446) [1]; in [2] (ATCC13883)) was >40 µM in each case.

With “KWKLFKKIGAVLKVL [CM15, KWKLFKKIGAVLKVL, reference compound]”, the mouse deaths result in the data set with E. coli KpC+1812446 (10 mg·Kg^−1 intraperitoneal) is on record as “led to mouse deaths after two days of treatment”. In addition, in the data set on E. coli KpC+1812446 (infected Balb/C mice, 5 and 10 mg·Kg^−1), the in vivo toxicity entry is “high in vivo toxicity”.

“VIHGLFDVIKKVASVIGGL-NH2 [VIH-Citropin1.1]”: the “MIC in Cu(II) supplemented medium” value was >33 µM with E. coli (ATCC 25922), 16 µM against E. coli (KpC+ 2101123), >33 µM in data set [7] and 4 µM with S. aureus (ATCC 25923). Further, the MIC in the data set with E. coli (ATCC 25922) is >33 µM; in the data set with E. coli (KpC+ 1812446) it was 33 µM; against E. coli (KpC+ 2101123), 16 µM; in data set [7] it was >33 µM; in data set [8], >33 µM; in data set [9], >33 µM. The MIC was 16 µM in the data set on MRSA (3730529), 4 µM in the data set on S. aureus (ATCC 25923), >33 µM in the data set on E. coli (KpC1812446) [10] and >33 µM in data set [11]. The MBIC (with E. coli (KpC1812446) [1]; in [2] (ATCC13883)) was >33 µM in each case.
